Measurements from ChEMBL document CHEMBL1821658, “Synthesis, antimicrobial evaluation and QSAR analysis of novel nalidixic acid based 1,2,4-triazole derivatives” (2011).
≈ marks a conversion by molar mass, not a printed value.

Legend:
Assay type in all cases: functional
[1] = tested on: Aspergillus niger; assay: Antifungal activity against Aspergillus niger by food poison technique; conditions: read-out: ED50 (the source's name)
[2] = tested on: Escherichia coli; assay: Antibacterial activity against Escherichia coli ATCC 8739 after 24 hrs by broth micro dilution assay; conditions: ATCC 8739, 24 h
[3] = tested on: Bacillus subtilis; assay: Antibacterial activity against Bacillus subtilis ATCC 12711 after 24 hrs by broth micro dilution assay; conditions: ATCC 12711, 24 h
[4] = tested on: Klebsiella pneumoniae; assay: Antibacterial activity against Klebsiella pneumoniae ATCC 31488 after 24 hrs by broth micro dilution assay; conditions: ATCC 31488, 24 h
[5] = tested on: Fusarium oxysporum; assay: Antifungal activity against Fusarium oxysporum by food poison technique; conditions: read-out: ED50 (the source's name)
[6] = tested on: Pseudomonas aeruginosa; assay: Antibacterial activity against Pseudomonas aeruginosa ATCC 9027 after 24 hrs by broth micro dilution assay; conditions: ATCC 9027, 24 h
[7] = tested on: Staphylococcus aureus; assay: Antibacterial activity against Staphylococcus aureus ATCC 2937 after 24 hrs by broth micro dilution assay; conditions: ATCC 2937, 24 h

SMILES | MIC90 [2] | MIC90 [3] | MIC90 [4] | MIC90 [6] | MIC90 [7] | EC50 [1] | EC50 [5]
CCn1cc(-c2nnc(S)n2/N=C/c2ccc(C#N)cc2)c(=O)c2ccc(C)nc21 | 125 µg/mL (≈ 301 µM) | 63 µg/mL (≈ 152 µM) | 63 µg/mL (≈ 152 µM) | 63 µg/mL (≈ 152 µM) | 63 µg/mL (≈ 152 µM) | 156 µg/mL (≈ 376 µM) | 177 µg/mL (≈ 426 µM)
CCn1cc(-c2nnc(S)n2/N=C/c2cccc([N+](=O)[O-])c2)c(=O)c2ccc(C)nc21 | 125 µg/mL (≈ 287 µM) | 125 µg/mL (≈ 287 µM) | 250 µg/mL (≈ 574 µM) | 63 µg/mL (≈ 145 µM) | 125 µg/mL (≈ 287 µM) | 161 µg/mL (≈ 369 µM) | 138 µg/mL (≈ 317 µM)
CCn1cc(-c2nnc(S)n2/N=C/c2ccc(Cl)cc2)c(=O)c2ccc(C)nc21 | 250 µg/mL (≈ 588 µM) | 16 µg/mL (≈ 37.7 µM) | 250 µg/mL (≈ 588 µM) | 16 µg/mL (≈ 37.7 µM) | 125 µg/mL (≈ 294 µM) | 120 µg/mL (≈ 282 µM) | 79.5 µg/mL (≈ 187 µM)
CCn1cc(-c2nnc(S)n2/N=C/c2ccc(SC)cc2)c(=O)c2ccc(C)nc21 | 250 µg/mL (≈ 573 µM) | 125 µg/mL (≈ 286 µM) | 63 µg/mL (≈ 144 µM) | 63 µg/mL (≈ 144 µM) | 250 µg/mL (≈ 573 µM) | 251 µg/mL (≈ 574 µM) | 104 µg/mL (≈ 239 µM)
CCn1cc(-c2nnc(S)n2/N=C/c2ccc([N+](=O)[O-])cc2)c(=O)c2ccc(C)nc21 | 125 µg/mL (≈ 287 µM) | 125 µg/mL (≈ 287 µM) | 63 µg/mL (≈ 145 µM) | 63 µg/mL (≈ 145 µM) | 125 µg/mL (≈ 287 µM) | 149 µg/mL (≈ 342 µM) | 100 µg/mL (≈ 230 µM)
CCn1cc(-c2nnc(S)n2/N=C/c2ccc(OC)cc2)c(=O)c2ccc(C)nc21 | 250 µg/mL (≈ 595 µM) | 16 µg/mL (≈ 38.1 µM) | 31 µg/mL (≈ 73.7 µM) | 16 µg/mL (≈ 38.1 µM) | 125 µg/mL (≈ 297 µM) | 105 µg/mL (≈ 249 µM) | 152 µg/mL (≈ 362 µM)
CCn1cc(-c2nnc(S)n2/N=C/c2ccc(C(C)(C)C)cc2)c(=O)c2ccc(C)nc21 | 63 µg/mL (≈ 141 µM) | 31 µg/mL (≈ 69.4 µM) | 63 µg/mL (≈ 141 µM) | 63 µg/mL (≈ 141 µM) | 125 µg/mL (≈ 280 µM) | 134 µg/mL (≈ 299 µM) | 117 µg/mL (≈ 262 µM)
CCOc1ccc(/C=N/n2c(S)nnc2-c2cn(CC)c3nc(C)ccc3c2=O)cc1 | 125 µg/mL (≈ 288 µM) | 63 µg/mL (≈ 145 µM) | 63 µg/mL (≈ 145 µM) | 63 µg/mL (≈ 145 µM) | 125 µg/mL (≈ 288 µM) | 86.6 µg/mL (≈ 199 µM) | 89.3 µg/mL (≈ 206 µM)
CCn1cc(-c2nnc(S)n2NC(=O)c2ccccc2)c(=O)c2ccc(C)nc21 | 63 µg/mL (≈ 155 µM) | 63 µg/mL (≈ 155 µM) | 63 µg/mL (≈ 155 µM) | 63 µg/mL (≈ 155 µM) | 63 µg/mL (≈ 155 µM) | 88.5 µg/mL (≈ 218 µM) | 110 µg/mL (≈ 270 µM)
CCn1cc(-c2nnc(S)n2N)c(=O)c2ccc(C)nc21 | 125 µg/mL (≈ 413 µM) | 63 µg/mL (≈ 208 µM) | 63 µg/mL (≈ 208 µM) | 63 µg/mL (≈ 208 µM) | 63 µg/mL (≈ 208 µM) | 567 µg/mL (≈ 1880 µM) | 382 µg/mL (≈ 1260 µM)

Further lines, with some results ahead:

MIC90 [2] | MIC90 [3] | MIC90 [4] | MIC90 [6] | MIC90 [7] | SMILES | EC50 [1] | EC50 [5]
31 µg/mL (≈ 67.8 µM) | 63 µg/mL (≈ 138 µM) | 63 µg/mL (≈ 138 µM) | 63 µg/mL (≈ 138 µM) | 125 µg/mL (≈ 273 µM) | CCn1cc(-c2nnc3sc(-c4cccc(Cl)c4Cl)nn23)c(=O)c2ccc(C)nc21 | 109 µg/mL (≈ 239 µM) | 96.9 µg/mL (≈ 212 µM)
16 µg/mL (≈ 34.8 µM) | 31 µg/mL (≈ 67.5 µM) | 125 µg/mL (≈ 272 µM) | 63 µg/mL (≈ 137 µM) | 125 µg/mL (≈ 272 µM) | CCn1cc(-c2nnc(S)n2/N=C/c2c(Cl)cccc2Cl)c(=O)c2ccc(C)nc21 | 101 µg/mL (≈ 221 µM) | 112 µg/mL (≈ 245 µM)
63 µg/mL (≈ 219 µM) | 31 µg/mL (≈ 108 µM) | 63 µg/mL (≈ 219 µM) | 125 µg/mL (≈ 435 µM) | 63 µg/mL (≈ 219 µM) | CCn1cc(-c2nnc(S)[nH]2)c(=O)c2ccc(C)nc21 | 76 µg/mL (≈ 265 µM) | 111 µg/mL (≈ 387 µM)
12.5 µg/mL (≈ 37.7 µM) | 12.5 µg/mL (≈ 37.7 µM) | 2.5 µg/mL (≈ 7.54 µM) | 1.25 µg/mL (≈ 3.77 µM) | 10 µg/mL (≈ 30.2 µM) | O=C(O)c1cn(C2CC2)c2cc(N3CCNCC3)c(F)cc2c1=O [CIPROFLOXACIN] |  | 
63 µg/mL (≈ 162 µM) | 125 µg/mL (≈ 322 µM) | 125 µg/mL (≈ 322 µM) | 63 µg/mL (≈ 162 µM) | 63 µg/mL (≈ 162 µM) | CCn1cc(-c2nnc3sc(-c4ccccc4)nn23)c(=O)c2ccc(C)nc21 | 79.6 µg/mL (≈ 205 µM) | 103 µg/mL (≈ 265 µM)
63 µg/mL (≈ 149 µM) | 31 µg/mL (≈ 73.3 µM) | 63 µg/mL (≈ 149 µM) | 63 µg/mL (≈ 149 µM) | 63 µg/mL (≈ 149 µM) | CCn1cc(-c2nnc3sc(-c4cccc(Cl)c4)nn23)c(=O)c2ccc(C)nc21 | 144 µg/mL (≈ 342 µM) | 103 µg/mL (≈ 243 µM)
13 µg/mL (≈ 22.4 µM) | 5 µg/mL (≈ 8.6 µM) | 2 µg/mL (≈ 3.44 µM) | 4 µg/mL (≈ 6.88 µM) | 15 µg/mL (≈ 25.8 µM) | CN[C@@H]1[C@H](O[C@H]2[C@H](O[C@H]3[C@H](O)[C@@H](O)[C@H](N=C(N)N)[C@@H](O)[C@@H]3N=C(N)N)O[C@@H](C)[C@]2(O)C=O)O[C@@H](CO)[C@H](O)[C@H]1O [STREPTOMYCIN] |  | 
